Experimental data as given in patent US7642358B2, “Substituted phenylacetic acids” (Metabolex, Inc., priority 2002, dated 2010).

Tested on: C57BL/6J ob/ob mice
Assay: Anti-diabetic activity (plasma glucose lowering) in C57BL/6J ob/ob mice, oral gavage
Type: in vivo, mouse
Conditions: male C57BL/6J ob/ob mice, oral gavage once a day for 1-4 days; for minimal effective dose: Mus musculus, dose effective for plasma glucose lowering, blood taken 6 hours after each dose, read-out: Potency
Method: The anti-diabetic activities of the compounds were evaluated in the C57BL/6j ob/ob Mice model.
Male, 7-9 weeks old, C57BL/6J ob/ob mice were purchased from The Jackson Laboratory (Bar Harbor, Me., USA). Animals were housed (4-5 mice/cage) under standard laboratory conditions at 22±3° C. temperature and 50±20% relative humidity, and were maintained on a diet of Purina rodent chow and water ad libitum. Prior to treatment, blood was collected from the tail vein of each animal. Mice that had non-fasting plasma glucose levels between 250 and 500 mg/dl were used. Each treatment group consisted of 8-10 mice that were distributed so that the mean glucose levels were equivalent in each group at the start of the study. Mice were dosed orally by gavage once a day for 1-4 days with vehicle and one or more dose of test compound at a dose ranging from 5 to 125 mg/kg. Compounds were delivered in a liquid formulation containing 5% (v/v) dimethyl sulfoxide (DMSO), 1% (v/v) Tween 80® and 0.9% (w/v) methylcellulose. The gavage volume was 10 ml/kg. Blood samples were taken at 6 hours after the each dose and analyzed for plasma glucose. Food intake and body weight were measured daily. Plasma glucose concentrations were determined colorimetrically using a commercial glucose oxidase method (Sigma Chemical Co, St. Louis, Mo., USA). Significant difference between groups (comparing drug-treated to vehicle-treated) was evaluated using the Student unpaired t-test.
FIG. 6 illustrates the anti-diabetic effects of selected compounds of the present invention. Table 15 provides the relative potency of some of these selected compounds. Compounds that are effective for glucose lowering at the dose of ≧125 mg/kg are assigned a potency of +; compounds that are effective for glucose lowering at a dose of >25 mg/kg but <125 mg/kg are assigned a potency of ++; compounds that are effective for glucose lowering at a dose of ≦25 mg/kg are assigned a potency of +++. For example, a compound at 25 mg/kg that lowered the animal glucose level from 400 mg/dL (vehicle group value) to 250 mg/dL, is assigned the potency of +++.

Compound	minimal effective dose [mg/kg]	Insulin Level compared with vehicle
O=C(O)C(Oc1ccccc1-c1nc2ccccc2o1)c1ccc(Cl)cc1 (centres unmarked) [Example I-1]	25 to 125	Lower
O=C(O)C(Oc1ccccc1-c1nc2ccccc2o1)c1cccc(C(F)(F)F)c1 (centres unmarked) [Example I-3]	≥ 125	Lower
O=C(O)C(Oc1ccc(C(F)(F)F)cc1-c1nc2ccccc2o1)c1cccc(C(F)(F)F)c1 (centres unmarked) [Example I-89]	≤ 25	Lower
O=C(O)C(Oc1ccc(C(F)(F)F)cc1-c1nc2ccccc2o1)c1ccccc1 (centres unmarked) [Example I-92]	≤ 25	Lower
O=C(O)C(Oc1ccc(Cl)cc1-c1nc2ccccc2o1)c1ccc(Cl)cc1 (centres unmarked) [Example I-190]	≤ 25	Lower
O=C(O)C(Oc1ccc(Cl)cc1-c1nc2ccccc2o1)c1cccc(C(F)(F)F)c1 (centres unmarked) [Example I-191]	≤ 25	Lower
COc1ccc(C(Oc2ccc(Cl)cc2-c2nc3ccccc3o2)C(=O)O)cc1 (centres unmarked) [Example I-193]	≤ 25	Lower
O=C(O)C(Oc1ccc(Cl)cc1-c1nc2ccccc2o1)c1cccc(Cl)c1 (centres unmarked) [Example I-194]	≤ 25	Lower
O=C(O)[C@@H](Oc1ccc(C(F)(F)F)cc1-c1nc2ccccc2o1)c1ccccc1 [Example I-369]	≤ 25	Lower
CC(Oc1ccc(C(F)(F)F)cc1-c1nc2ccccc2o1)(C(=O)O)c1ccccc1 (centres unmarked) [Ia-365]	≤ 25	Lower
CC(Oc1ccc(C(F)(F)F)cc1-c1nc2ccccc2o1)(C(=O)O)c1ccccc1 (centres unmarked) [Ia-366]	–	Lower
Cc1ccc(OC(C(=O)O)c2cccc(C(F)(F)F)c2)c(-n2nc3ccccc3n2)c1 (centres unmarked) [XI-2]	≤ 25	Lower
Cc1ccc(OC(C(=O)O)c2ccc(C(F)(F)F)cc2)c(-n2nc3ccccc3n2)c1 (centres unmarked) [XI-6]	≤ 25	Lower
O=C(O)C(Oc1ccc(Cl)cc1-n1nc2ccccc2n1)c1ccc(C(F)(F)F)cc1 (centres unmarked) [XI-24]	≤ 25	Lower
O=C(O)C(Oc1ccc(C(F)(F)F)cc1-n1nc2ccccc2n1)c1cccc(C(F)(F)F)c1 (centres unmarked) [XI-47]	≤ 25	Lower
O=C(O)C(Oc1ccc(C(F)(F)F)cc1-n1nc2ccccc2n1)c1ccc(C(F)(F)F)cc1 (centres unmarked) [XI-51]	≤ 25	Lower
Cc1ccc(OC(C)(C(=O)O)c2ccc(Cl)cc2)c(-n2nc3ccccc3n2)c1 (centres unmarked) [XIa-5]	≤ 25	Lower
CC(Oc1ccc(C(F)(F)F)cc1-n1nc2ccccc2n1)(C(=O)O)c1ccc(C(F)(F)F)cc1 (centres unmarked) [XIa-51]	≤ 25	Lower
